Reference: patent publication EP0314302A2, “Herbicidal o-carbomethoxy-sulfonylureas” (E.I. DU PONT DE NEMOURS AND COMPANY, priority 1987, dated 1989)

Assays:
[1] = system: Coffee; test: Test 9 postemergence; format: in vivo; conditions: scale 0-100
Description: (§1) Plastic windowsill pots containing planting medium were seeded with bahiagrass, bindweed (Convolvulus spp), guinea grass (Panicum maximum), large crabgrass (Digitaria sanguinalis) and pigweed (Amaranthus spp). Individual 15-cm plastic pots contained sandbur (Cenchrus echinatus), Mikania cordata, Boston fern (Nephrolepis exalata), quackgrass (Agropyron repens), elephantgrass (Pennisetum purpureum) and sowthistle (Sonchus spp) plants.
(§2) Plants were treated postemergence with Compound I formulated in a non-phytotoxic solvent. Plants were visually rated 22 days after treatment (DAT). Injury and weed control ratings were based on the scale of 0 to 100 where 0 = no effect, 20 = minimal control and 100 = complete control.

[2] = system: Itchgrass; test: Test 11 windowsill flats, postemergence; format: in vivo, Rottboellia exaltata; conditions: Postemergence 32 g/ha, 0.25% X-77 surfactant, scale 0-100
Description: (§3) Budded citrus seedlings were planted in 30-liter plastic pots which were also seeded with sandbur, guineagrass, narrowleaf panicum, common ragweed, yellow nutsedge, purple nutsedge and bindweed. Compound I was applied preemergence and postemergence to the weeds. Treatments were sprayed to simulate the trunk-to-trunk herbicide application method used in some citrus groves. The compound was also applied postemergence to weeds grown in windowsill flats. The flats were filled with planting medium and seeded with morningglory (Ipomoea spp.). purple nutsedge (Cyperus rotundus), pigweed (Amaranthus spp.), bindweed (Convolvulus spp.), narrowleaf panicum (Panicum maximum), common ragweed (Ambrosia artemisiifolia), sandbur (Cenchrus echinatus), itchgrass (Rottboellia exaltata), johnsongrass (Sorghum halepense), guineagrass (Panicum maximum), smooth crabgrass (Digitaria ischaemum), broadleaf signalgrass (Brachiaria platyphylla), bermudagrass (Cynodon dactylon), goosegrass (Eleusine indica), large crabgrass (Digitaria sanguinalis) and yellow nutsedge (Cyperus esculentus).
(§4) The compound was formulated and sprayed with 0.25% X-77 surfactant in water. Plants were visually rated 21 and 29 days after treatment and compared with appropriate controls. Injury ratings were based on the scale of 0 to 100, where 0 indicates no effect, 20 indicates minimum effect and 100 indicates complete control. […]

[3] = system: Bindweed; test: Test 11 citrus pots, preemergence to the weeds; format: in vivo, Convolvulus spp.; conditions: Preemergence 32 g/ha; 0.25% X-77 surfactant; scale 0-100
Description: as §3, §4

[4] = system: Citrus; test: Test 11 citrus pots, preemergence to the weeds; format: in vivo; conditions: Preemergence 32 g/ha; 0.25% X-77 surfactant; scale 0-100
Description: as §3, §4

[5] = system: Sandbur; test: Test 9 postemergence; format: in vivo, Cenchrus echinatus; conditions: scale 0-100
Description: as §1, §2

[6] = system: Bindweed; test: Test 11 citrus pots, postemergence to the weeds; format: in vivo, Convolvulus spp.; conditions: Postemergence 32 g/ha, 0.25% X-77 surfactant, scale 0-100
Description: as §3, §4

[7] = system: Trumpetcreeper; test: Test 12 over-the-top application, postemergence; format: in vivo, Campsis radicans; conditions: 26 days after treatment, scale 0-100
Source text: The object of this test was to evaluate the safety of sour lemon to the over-the-top application of Compound I and control of lantana (Lantana camara) and trumpetcreeper (Campsis radicans). Plants were sprayed postemergence with Compound I formulated in a non-phytotoxic solvent. Treated plants were visually rated 26 days after treatment and compared with appropriate controls. Injury ratings were based on the scale of 0 to 100, where 0 indicates no effect, 20 indicates minimal effect and 100 indicates complete control.

[8] = system: Kochia; test: Test 7 postemergence; format: in vivo, Kochia spp; conditions: scale 0-100
Description: (§5) Individual 11.4-cm plastic pots filled with planting medium were seeded with rape, wild radish (Raphanus raphanistruna). tansy mustard (Descurainia pinnata), ball mustard (Neslia paniculata), black mustard (Brassica nigra), yellow mustard, brown mustard, lentils, safflower, flax, sunflower, peanut, vetch, alfalfa, field bean, pea, violet (Viola spp), Kochia (Kochia spp), Russian thistle (Salsola spp), Matricaria spp, groundsel (Senecio spp), shepherdspurse (Capsella bursa-pastoris), nightshade (Solanum spp), sowthistle (Sonchus spp), sugar beet, wheat, "Bonanza" barley and "Morex" barley, Kentucky bluegrass (Poa pratensis), red clover (Trifolium pratense), dandelion (Taraxacum spp) and buckhorn plantain (Plantago lanceolata).
(§6) Plants were treated postemergence with the compound formulated with a non-phytotoxic carrier. Plants were visually rated 18 days after treatment (DAT). Response ratings were based on the scale of 0 to 100 where 0 = no effect, 20 = minimal injury and 100 = complete control.

[9] = system: Broadleaf signalgrass; test: Test 11 windowsill flats, postemergence; format: in vivo, Brachiaria platyphylla; conditions: Postemergence 32 g/ha, 0.25% X-77 surfactant, scale 0-100
Description: as §3, §4

[10] = system: Common ragweed; test: Test 11 citrus pots, preemergence to the weeds; format: in vivo, Ambrosia artemisiifolia; conditions: Preemergence 32 g/ha; 0.25% X-77 surfactant; scale 0-100
Description: as §3, §4

[11] = system: Sandbur; test: Test 11 citrus pots, postemergence to the weeds; format: in vivo, Cenchrus echinatus; conditions: Postemergence 32 g/ha, 0.25% X-77 surfactant, scale 0-100
Description: as §3, §4

[12] = system: Red clover; test: Test 7 postemergence; format: in vivo, Trifolium pratense; conditions: scale 0-100
Description: as §5, §6

[13] = system: Grapes; test: Test 10 postemergence safety to crops and weed control; format: in vivo, Macedine grapes; conditions: scale 0-100
Description: The object of these tests was to evaluate the compound of this invention for postemergence safety to crops and weed control. Seedling and budded Macedine grapes were grown in 11.4-cm pots. Flax, green foxtail (Setaria viridis), "Morex" barley, wild oats (Avena fatua), "Era" wheat, annual ryegrass (Lolium multiflorum), wild radish (Raphanus raphanistrum), rape, sunflower, chickweed (Stellaria media) and wild buckwheat (Polygonum convolvulus) were seeded in windowsill pots.
The plants were sprayed postemergence with Compound I in a non-phytotoxic solvent. Plants were visually rated 15 and 27 days after treatment (DAT). Injury and weed control ratings were based on the scale of 0 to 100 where 0 = no effect, 20 minimal control and 100 = complete control.

[14] = system: Elephantgrass; test: Test 9 postemergence; format: in vivo, Pennisetum purpureum; conditions: scale 0-100
Description: as §1, §2

[15] = system: Pigweed; test: Test 11 windowsill flats, postemergence; format: in vivo, Amaranthus spp.; conditions: Postemergence 32 g/ha, 0.25% X-77 surfactant, scale 0-100
Description: as §3, §4

COC(=O)c1cccnc1S(=O)(=O)NC(=O)Nc1nc(OC)cc(OC)n1 [Compound I, 2-[[(4,6-dimethoxypyrimidin-2-yl)aminocarbonyl]aminosulfonyl]-3-pyridinecarboxylic acid, methyl ester]
Plant Injury Rating 22 DAT ([1]; 8 g/ha): 0 | Plant Injury Rating 22 DAT ([1]; 16 g/ha): 0 | Plant Injury Rating 22 DAT ([1]; 32 g/ha): 0 | Injury ratings [2]: 100 | Injury ratings [3]: 90 | Injury ratings [4]: 0 | Plant Injury Rating 22 DAT ([5]; 8 g/ha): 100 | Plant Injury Rating 22 DAT ([5]; 16 g/ha): 100 | Plant Injury Rating 22 DAT ([5]; 32 g/ha): 100 | Injury ratings [6]: 100 | Injury ratings ([7]; 8 g/ha): 0 | Injury ratings ([7]; 16 g/ha): 20 | Injury ratings ([7]; 32 g/ha): 40 | Plant Injury Rating 18 DAT ([8]; 16 g/ha): 100 | Plant Injury Rating 18 DAT ([8]; 32 g/ha): 100 | Injury ratings [9]: 100 | Injury ratings [10]: 20 | Injury ratings [11]: 100 | Plant Injury Rating 18 DAT ([12]; 16 g/ha): 100 | Plant Injury Rating 18 DAT ([12]; 32 g/ha): 100 | Plant Injury Rating 27 DAT ([13]; Budded grapes, 1 g/ha): 0 | Plant Injury Rating 27 DAT ([13]; Budded grapes, 2 g/ha): 0 | Plant Injury Rating 27 DAT ([13]; Budded grapes, 4 g/ha): 0 | Plant Injury Rating 27 DAT ([13]; Budded grapes, 8 g/ha): 0 | Plant Injury Rating 27 DAT ([13]; Budded grapes, 16 g/ha): 10 | Plant Injury Rating 27 DAT ([13]; Budded grapes, 32 g/ha): 10 | Plant Injury Rating 27 DAT ([13]; Seedling grapes, 1 g/ha): 0 | Plant Injury Rating 27 DAT ([13]; Seedling grapes, 2 g/ha): 0 | Plant Injury Rating 27 DAT ([13]; Seedling grapes, 4 g/ha): 0 | Plant Injury Rating 27 DAT ([13]; Seedling grapes, 8 g/ha): 10 | Plant Injury Rating 27 DAT ([13]; Seedling grapes, 16 g/ha): 20 | Plant Injury Rating 27 DAT ([13]; Seedling grapes, 32 g/ha): 20 | Plant Injury Rating 22 DAT ([14]; 8 g/ha): 0 | Plant Injury Rating 22 DAT ([14]; 16 g/ha): 50 | Plant Injury Rating 22 DAT ([14]; 32 g/ha): 70 | Injury ratings [15]: 100
